From patent publication US20260137661A1, “PPAR-ALPHA/GAMMA AGONIST FOR USE IN THE TREATMENT OF LIVER FAILURE” (Genfit, priority 2022, published 2026)

Legend:
[1] = tested on: HepG2 cell line; assay: Staurosporine-induced apoptosis in HepG2 cells: caspase 3/7 activity; format: cell-based; settings: Homo sapiens, 16 h pre-treatment, then 10 μM staurosporin for 4 h, p<0.001
Method: In order to evaluate the effect of the compounds to protect hepatocytes from cell death, apoptosis was induced by staurosporine in the human hepatoblastoma-derived HepG2 cell line (ECACC, #85011430, Sigma-Aldrich). HepG2 was cultured in high-glucose DMEM medium (#41965, Gibco, France) supplemented with 10% of fetal bovine serum (FBS, #10270, Gibco), 1% penicillin/streptomycin (#15140, Gibco), 1% sodium pyruvate (#11360, Gibco) and 1% MEM non-essential amino acids (#11140, Gibco) in a 5% CO2 incubator at 37° C.
To evaluate caspase 3/7 activity, which is a surrogate marker of apoptosis, 1.5×10^4 cells were plated in a 384-well plate (#781080, Greiner, France). After cell adherence (8 hours), cells were serum starved for 16h in the presence of compounds (dose ranging from 0.3 to 10 µM) or vehicle. Thereafter, cells were treated with 10 μM staurosporin (#569397, Sigma-Aldrich, Germany) supplemented with compound for additional 4 hours before cell lysis and caspase activity measurement.
Caspase 3/7 activity was measured using Caspase Glow™ 3/7 assay (#G8093, Promega, USA). Luminescence was measured using a Spark microplate reader (#30086376, Tecan, USA). The amount of luminescence (RLU) directly correlates with caspase 3/7 activity.

[2] = tested on: C57BL/6J male mice; assay: LPS/GalN mouse model of acute liver failure: serum hepatic markers and cytokines; format: in vivo; settings: 1 mg/kg/day oral gavage for 3 days before LPS/GalN injection, serum 6 h after LPS/GalN, vs vehicle
From the text: Low doses of LPS in combination with the hepatotoxic agent D-Galactososamine (GalN) promote specific liver injury in mice and induce the inflammatory cytokines production, thus recapitulating the clinical picture of acute liver injury in human (Pourcet et al., Gastroenterology, 2018, 154 (5), p 1449-1464.e20). Hepatic injury induced by LPS/GalN is therefore a widely used mouse model to evaluate the effect of pharmacological agents on acute liver failure.
To evaluate the efficacy of the compounds on liver injury and function and the inflammatory response occurring upon acute liver failure, C57BL/6J male mice (8 weeks old, Janvier Labs) received an intraperitoneal injection of 0.025 mg/kg LPS (Escherichia coli 0111: B4, #L2630, Sigma-Aldrich) supplemented with 700 mg/kg D-Galactosamine (GalN, G0500, Sigma-Aldrich).
Cpd.1 (1 mg/kg/day) or vehicle (carboxymethylcellulose 1%, 0.1% Tween 80) was administered by oral gavage during the three days before LPS/GalN injection (n=10-12 per group). Mice were sacrificed 6h after LPS/GalN injection. Blood samples were obtained from retro-orbital sinus puncture on animals slightly asleep with isoflurane (Isoflurin 1000 mg/g, GTIN 03760087152678, Axience) just before sacrifice. A group of mice (n=4) received an intraperitoneal injection to be used as healthy controls.
Serum aspartate aminotransferase (ASAT) was measured using Randox kit for Daytona Plus automate (AS 8306) according to the manufacturer recommendation. ASAT enzymatically transforms alpha-oxoglutarate and L-aspartate into L-glutamate and oxaloacetate. In the presence of NADH, the generated oxaloacetate is converted by malate dehydrogenase to form L-malate and NAD+. The kinetics of the reaction is studied and allows the concentration of ASAT to be calculated.
Serum alanine aminotransferase (ALAT) was measured using Randox kit for Daytona Plus automate (AL 8304) according to the manufacturer recommendation. ALAT enzymatically transforms alpha-oxoglutarate and L-alanine into L-glutamate and pyruvate. In the presence of NADH, the generated pyruvate is converted by lactate dehydrogenase to form L-lactate and NAD+. The kinetics of the reaction is studied and allows the concentration of ALAT to be calculated.
Serum total bilirubin was measured using Randox kit for Daytona Plus automate (BR 8377) according to the manufacturer recommendation. The bilirubin is oxidized by vanadate at about pH 2.9 to produce biliverdin. In the presence of detergent and vanadate, both conjugate and unconjugated bilirubin are oxidized. This oxidation reaction causes a decrease in the optical density of the yellow color, which is specific to bilirubin. The decrease in optical density at 450/546 nm is proportional to the total bilirubin concentration in the sample.
Serum total bile acids were measured using Randox kit for Daytona Plus automate (BI 3863) according to the manufacturer recommendation. In the presence of Thio-NAD, the enzyme 3-α-hydroxysteroid dehydrogenase (3-α-HSD) converts bile acids to 3-keto steroids and Thio-NADH. In the presence of excess NADH, the enzyme cycling occurs efficiently and the rate of formation of Thio-NADH is determined by measuring specific change of absorbance at 405 nm.
The concentration of serum interleukin-6 (IL6) was determined using a multiplex sandwich ELISA system (Mouse Magnetic Luminex #LSXAMSM-06, Biotechne) according to the manufacturer instructions. […] After washing, IL6 was detected through the addition of biotinylated antibodies. […]

SMILES	inhibition at 3 µM ([1]; 3 μM compound) [%]	reduction of total bilirubin ([2]; p=0.003) [%]	reduction of total bile acids ([2]; p=0.004) [%]	change of pro-inflammatory cytokine IL6 (serum) ([2]; p=0.01) [%]	decrease of serum ASAT ([2]; p=0.01) [%]	decrease of serum ALAT ([2]; p=0.03) [%]	inhibition at 10 µM ([1]; 10 μM compound) [%]
COc1ccc(OC(=O)N(CC(=O)O)Cc2ccc(OCCc3nc(-c4ccccc4)oc3C)cc2)cc1 [Cpd.2, N-[(4-methoxyphenoxy)carbonyl]-N-[[4-[2-(5-methyl-2-phenyl-4-oxazolyl)ethoxy]phenyl]methyl]glycine]	24						
CCO[C@@H](Cc1ccc(OCCc2ccc(OS(C)(=O)=O)cc2)cc1)C(=O)O [Cpd. 1, (S)-2-ethoxy-3-(4-(4-((methylsulfonyl)oxy)phenethoxy)phenyl) propanoic acid]		73	79	−78	66	57	12
